Data as given in patent US5688773A, “Method of selectively destroying neoplastic cells” (priority 1994, dated 1997).

Key:
[1] = tested on: cytochrome P450 2B1-negative cells (parental 9L and 9L-Z); assay: Drug sensitivity of cultured 9L cells; format: cell-based, rat; conditions: 5 days
Procedure: (§1) To test for drug sensitivity, 1×10^5 cells were plated in 30-mm tissue culture plates (Falcon 3046) in duplicate. Drugs were added 18-24 hours after seeding. Cells were allowed to grow for times ranging up to 5 days after drug treatment, and the final cell number was then determined. Cells were rinsed with phosphate buffered saline or Hank's buffered saline, dispersed using trypsin-EDTA (GIBCO/BRL, Inc.), and then counted with a hemocytometer. Results are expressed as a growth ratio, i.e., the number of cells in plates containing drug as a percentage of the corresponding drug-free controls (mean±range of duplicate determinations).

[2] = tested on: cytochrome P450 2B1-positive cells (9L-ZP and L450-2); conditions: 5 days
C6 cells [3] = assay: Cell proliferation assay; format: cell-based, rat; conditions: 0.5 mM, four days
Procedure: Cell proliferation assays: For cell proliferation assays, cells (2×10^5 per dish, unless otherwise noted) were plated onto 10 cm dishes. […] Incubations were continued for four days and cell numbers were assayed using a Coulter counter (Coulter Electronics Inc.), after harvesting in trypsinEDTA.

C6 cells [4] = assay: Trypsinization and replating assay; format: cell-based, rat; conditions: Table V panel B; survivors of panel A replated, nine days
Procedure: Trypsinization and replating assay: To determine the temporal kinetics of CPA-mediated cytotoxicity, 2×10^6 cells were plated onto each 10 cm dish. Twenty-four hours later, 0.5 mM CPA was added and cells were incubated for the times indicated in each figure. Cells were then trypsinized and replated at a density of 2×10^5 cells/10 cm dish. Nine days later, cell numbers were evaluated by Coulter counting.

[5] = tested on: C6 cells exposed to CM from C6; assay: C6 colony formation after conditioned medium from drug-exposed cells; format: cell-based, rat; conditions: Table V panel C; CM from treated C6 cultures
[6] = tested on: mixed culture of 9L and 9L-ZP cells; assay: Cytotoxicity toward mixed cultures; format: cell-based, rat; conditions: 10 μM metyrapone
Procedure: FIG. 28 is a bar graph depicting the cytotoxicity of oxazaphosphorines toward mixed cultures of 9L and 9L-ZP cells. Equal numbers of parental 9L cells were mixed with 9L-ZP cells (total initial cell number=1×10^5 /30 mm tissue culture dish). […] Cell numbers were determined 5 days after beginning drug treatment. Data (mean ±range of duplicates) are expressed as growth ratio (%) relative to drug-free controls.
as §1

9L-ZP cells = assay: Drug sensitivity of cultured 9L cells with or without metyrapone; conditions: 10 μM metyrapone
[7] = tested on: parental 9L cells co-cultured with 9L-ZP cells; assay: Co-culture experiments with culture inserts; format: cell-based, rat; conditions: 10 μM metyrapone
Procedure: Co-culture Experiments: Parental 9L cells were plated in the bottom wells of culture plates (Falcon 3502), and cytochrome P450 2B1-negative or cytochrome P450 2B1-positive cells were plated into 25 mm cell culture inserts (0.45 μm pore size, Falcon 3090). Culture media were removed 18-24 hours later by aspiration. Culture medium without drug (1.0 mL) was added to the bottom well, and 1.0 mL medium containing drug was added to the upper cell culture insert. Cell numbers were determined 5 days later, as described above.

O=P1(N(CCCl)CCCl)NC(OO)CCO1 (centres unmarked) [4-hydroperoxy cyclophosphamide]
Sensitivity to activated cyclophosphamide [1]: inherently sensitive
Sensitivity to activated cyclophosphamide [2]: inherently sensitive

CCN(CC)P1(=O)NCCCO1 (centres unmarked) [DCPA, didechlorocyclophosphamide]
Effect on cell proliferation (C6 cells [3]): had no effect
Cell proliferation assay, number of cells (C6 cells [3]; Table V panel A): 21.51±0.43 ×10^6
Trypsinization and replating assay, cell count (C6 cells [4]): 20.58±0.33
Secretion effect, C6 colony number [5]: 301±4.6

CC(C)(C(=O)c1cccnc1)c1cccnc1 [metyrapone]
Effect on cyclophosphamide killing of mixed culture [6]: largely abrogate
Effect on cytotoxic effect of 4-hydroperoxy cyclophosphamide (9L-ZP cells; 10 μM 4-hydroperoxy cyclophosphamide): did not block
Effect on cytotoxic effects of cyclophosphamide (9L-ZP cells; 1 mM cyclophosphamide): nearly eliminated
Effect on cytotoxic effects of ifosphamide (9L-ZP cells; 2 mM ifosphamide): nearly eliminated
Effect on cyclophosphamide killing of both cell populations [7]: effectively blocked
